Among the data in US9598421B2, “Imidazopyridazine compounds” (Pfizer Inc., priority 2014, dated 2017) are IC50 values, retold here.

Structures can show the parent of a compound that is named as a salt. Where only a bound is given, the exact number is not on record here.

One test deals with Human PDE4A (Homo sapiens (Human), UniProt P27815). Kind of test: PDE4A Scintillation Proximity Assay (SPA), inhibition of enzyme activity. It is filed as biochemical. The settings on record: human recombinant enzyme, 1 μM cAMP substrate, 30 min at 25° C., geometric mean of 2-9 determinations unless otherwise indicated, read-out: Human PDE4A FL. (In general: SPA uses beads or plates that emit light when radiolabelled molecules are held near them.)
Human PDE4A, sequence (P27815 other isoform, or with tags, fused parts or gaps): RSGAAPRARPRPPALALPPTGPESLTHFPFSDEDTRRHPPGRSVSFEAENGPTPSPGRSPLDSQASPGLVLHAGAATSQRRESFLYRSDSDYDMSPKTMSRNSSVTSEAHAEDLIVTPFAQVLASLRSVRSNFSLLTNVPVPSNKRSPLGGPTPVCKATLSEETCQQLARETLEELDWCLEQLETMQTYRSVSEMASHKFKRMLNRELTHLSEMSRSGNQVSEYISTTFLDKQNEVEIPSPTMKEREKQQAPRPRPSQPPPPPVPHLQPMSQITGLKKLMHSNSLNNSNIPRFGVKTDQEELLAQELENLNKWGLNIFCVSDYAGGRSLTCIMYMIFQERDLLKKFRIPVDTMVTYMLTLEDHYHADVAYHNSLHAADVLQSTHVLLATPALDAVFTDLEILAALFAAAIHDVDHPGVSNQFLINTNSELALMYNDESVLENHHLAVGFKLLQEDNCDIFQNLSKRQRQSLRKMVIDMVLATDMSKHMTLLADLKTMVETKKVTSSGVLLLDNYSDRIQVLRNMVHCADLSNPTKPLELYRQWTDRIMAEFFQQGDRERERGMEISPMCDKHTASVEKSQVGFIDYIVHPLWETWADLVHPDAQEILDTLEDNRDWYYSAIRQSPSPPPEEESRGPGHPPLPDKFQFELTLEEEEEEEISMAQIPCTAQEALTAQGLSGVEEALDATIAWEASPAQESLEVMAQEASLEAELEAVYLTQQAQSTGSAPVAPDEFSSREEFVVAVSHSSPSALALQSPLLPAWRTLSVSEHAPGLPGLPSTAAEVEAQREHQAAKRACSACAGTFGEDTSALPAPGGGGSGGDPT
Method: The PDE4A3, PDE4B1, PDE4C1 and PDE4D3 assays use the Scintillation Proximity Assay (SPA) technology to measure the inhibition of human recombinant PDE4A1, PDE4B3, PDE4C1, and PDE4D3 enzyme activity by compounds in vitro. The PDE4A1, PDE4B3, PDE4C1, and PDE4D3 assays are run in parallel using identical parameters, except for the concentration of enzyme (80 pM PDE4A3, 40 pM PDE4B3, 40 pM PDE4C1 and 10 pM PDE4D). […] Reactions are incubated for 30 min at 25° C. The addition of 20 uL of 8 mg/ml yitrium silicate SPA beads (Perkin Elmer) stops the reaction. The plates are sealed (TopSeal, Perkin Elmer) and the beads are allowed to settle for 8 hrs, after which they are read on the Trilux Microbeta overnight.
On to `O=C(NC1CC1)c1nc2cccnn2c1-c1ccc2ncnn2c1` [Example 6, N-Cyclopropyl-3-([1,2,4]triazolo[1,5-a]pyridin-6-yl)imidazo[1,2-b]pyridazine-2-carboxamide], for which the IC50 was 64.4 nM.
Still for that read-out and setting: the value for `O=C(c1nc2cccnn2c1-c1cncc(Cl)c1)N1CCC1` [Example 15, azetidin-1-yl[3-(5-chloropyridin-3-yl)imidazo[1,2-b]pyridazin-2-yl]methanone] was 264 nM.
`Cc1cc(-c2c(C(=O)NC3CC3)nc3cccnn23)c(F)cc1C#N` [Example 17, 3-(4-cyano-2-fluoro-5-methylphenyl)-N-cyclopropylimidazo[1,2-b]pyridazine-2-carboxamide]: the IC50 was 89.9 nM.
With `Cc1cc(C#N)c(F)cc1-c1c(C(=O)NC2CC2)nc2cccnn12` [Example 19, 3-(4-cyano-5-fluoro-2-methylphenyl)-N-cyclopropylimidazo[1,2-b]pyridazine-2-carboxamide], the IC50 amounted to 16.9 nM.
Still for that read-out and setting: the value for `CN(C(=O)c1nc2cccnn2c1-c1ccc(Cl)c(F)c1)C1CC1` [Example 21, 3-(4-chloro-3-fluorophenyl)-N-cyclopropyl-N-methylimidazo[1,2-b]pyridazine-2-carboxamide] was 53.7 nM.
On to `CCCNC(=O)c1nc2cccnn2c1-c1cc(F)cc(Cl)c1` [Example 34, 3-(3-chloro-5-fluorophenyl)-N-propylimidazo[1,2-b]pyridazine-2-carboxamide], for which the IC50 came to 29.5 nM.
With `Cc1ccc(-c2c(C(=O)NC3CC3)nc3cccnn23)cc1F` [Example 41, N-cyclopropyl-3-(3-fluoro-4-methylphenyl)imidazo[1,2-b]pyridazine-2-carboxamide], the IC50 came out at 3.13 nM.

The next test deals with Human PDE4D (Homo sapiens (Human), UniProt Q08499). Description: PDE4D Scintillation Proximity Assay (SPA), inhibition of enzyme activity. It is filed as biochemical. The following applies: human recombinant enzyme, 1 μM cAMP substrate, 30 min at 25° C., geometric mean of 2-9 determinations unless otherwise indicated, read-out: Human PDE4D FL.
Human PDE4D, sequence (Q08499 186-808): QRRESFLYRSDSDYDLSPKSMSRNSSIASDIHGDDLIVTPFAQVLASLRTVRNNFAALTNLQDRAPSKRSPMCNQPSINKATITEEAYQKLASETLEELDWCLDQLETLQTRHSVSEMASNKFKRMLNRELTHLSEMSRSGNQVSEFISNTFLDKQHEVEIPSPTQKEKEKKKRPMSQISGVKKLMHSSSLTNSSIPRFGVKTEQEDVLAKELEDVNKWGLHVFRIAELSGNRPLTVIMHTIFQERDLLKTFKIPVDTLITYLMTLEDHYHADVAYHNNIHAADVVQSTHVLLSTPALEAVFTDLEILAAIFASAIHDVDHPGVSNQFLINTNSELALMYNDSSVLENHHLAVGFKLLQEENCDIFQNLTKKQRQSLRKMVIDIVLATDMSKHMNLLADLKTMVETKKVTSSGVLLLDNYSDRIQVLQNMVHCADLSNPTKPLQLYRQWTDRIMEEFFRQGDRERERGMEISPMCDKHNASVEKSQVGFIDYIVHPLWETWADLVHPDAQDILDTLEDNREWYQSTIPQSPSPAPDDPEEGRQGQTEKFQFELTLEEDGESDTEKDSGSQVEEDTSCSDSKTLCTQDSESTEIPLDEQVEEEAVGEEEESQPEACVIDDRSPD
`O=C(NC1CC1)c1nc2cccnn2c1-c1ccc(Cl)c(Cl)c1` [Example 11, N-cyclopropyl-3-(3,4-dichlorophenyl)imidazo[1,2-b]pyridazine-2-carboxamide]: the IC50 was determined as 334 nM.
With `O=C(c1nc2cccnn2c1-c1ccc2ncnn2c1)N1CCC1` [Example 16, azetidin-1-yl[3-([1,2,4]triazolo[1,5-a]pyridin-6-yl)imidazo[1,2-b]pyridazin-2-yl]methanone], the IC50 is over 27500 nM.
On the same count and under the same terms, the result for `O=C(NC1CC1)c1nc2cccnn2c1-c1cnc2ccoc2c1` [Example 38, N-cyclopropyl-3-(furo[3,2-b]pyridin-6-yl)imidazo[1,2-b]pyridazine-2-carboxamide] reads 11200 nM; that for `O=C(c1nc2cccnn2c1-c1ccnc(C(F)(F)F)c1)N1CCC1` [Example 43, azetidin-1-yl{3-[2-(trifluoromethyl)pyridin-4-yl]imidazo[1,2-b]pyridazin-2-yl}methanone], over 16900 nM.
The same measure, in the same setting: the value for `O=C(NC1CC1(F)F)c1nc2cccnn2c1-c1ccc(Cl)c(F)c1` (centres unmarked) [Example 44, 3-(4-chloro-3-fluorophenyl)-N-(2,2-difluorocyclopropyl)imidazo[1,2-b]pyridazine-2-carboxamide] was 320 nM; that for `Cc1cc(-c2c(C(=O)N3CCC3)nc3cccnn23)ccc1Cl` [Example 51, azetidin-1-yl[3-(4-chloro-3-methylphenyl)imidazo[1,2-b]pyridazin-2-yl]methanone] was 2810 nM; that for `Cc1ccc(Cl)cc1-c1c(C(=O)N2CCC2)nc2cccnn12` [Example 64, azetidin-1-yl[3-(5-chloro-2-methylphenyl)imidazo[1,2-b]pyridazin-2-yl]methanone] was 844 nM.
On the same count and under the same terms, the result for `O=C(c1nc2cccnn2c1-c1ccc(Cl)cc1Cl)N1CCC1` [Example 65, azetidin-1-yl[3-(2,4-dichlorophenyl)imidazo[1,2-b]pyridazin-2-yl]methanone] reads 3720 nM; that for `O=C(N[C@@H]1C[C@@H]1F)c1nc2cccnn2c1-c1cncc(Cl)c1` [Example 69, 3-(5-chloropyridin-3-yl)-N-[(1R,2S)-2-fluorocyclopropyl]imidazo[1,2-b]pyridazine-2-carboxamide], 3330 nM.
Take `Cc1ccc(-c2c(C(=O)N[C@@H]3C[C@@H]3F)nc3cccnn23)c(F)c1` [Example 72, N-[(1R,2S)-2-fluorocyclopropyl]-3-(2-fluoro-4-methylphenyl)imidazo[1,2-b]pyridazine-2-carboxamide]: the IC50 worked out at 6590 nM.
For `O=C(c1nc2cccnn2c1-c1cnc2ccnn2c1)N1CCC1` [Example 74, azetidin-1-yl[3-(pyrazolo[1,5-a]pyrimidin-6-yl)imidazo[1,2-b]pyridazin-2-yl]methanone], the IC50 came to 10500 nM.
On the same count and under the same terms, the value for `O=C(NC1CC1)c1nc2cccnn2c1-c1cnc2ccnn2c1` [Example 78, N-cyclopropyl-3-(pyrazolo[1,5-a]pyrimidin-6-yl)imidazo[1,2-b]pyridazine-2-carboxamide] was 6490 nM; that for `Cc1ccc(C#N)cc1-c1c(C(=O)NC2CC2)nc2cccnn12` [Example 80, 3-(5-cyano-2-methylphenyl)-N-cyclopropylimidazo[1,2-b]pyridazine-2-carboxamide] was over 25400 nM; that for `CCNC(=O)c1nc2cccnn2c1-c1ccc(Cl)cc1C` [Example 95, 3-(4-chloro-2-methylphenyl)-N-ethylimidazo[1,2-b]pyridazine-2-carboxamide] was 14800 nM.
For the molecule `CC(C)NC(=O)c1nc2cccnn2c1-c1cc(F)c(Cl)cc1F` [Example 100, 3-(4-chloro-2,5-difluorophenyl)-N-(propan-2-yl)imidazo[1,2-b]pyridazine-2-carboxamide], the IC50 is 766 nM.

The test is the same for the next values; noted with them: read-out: Human PDE4D FL.
Turning to `O=C(NCCc1ccccc1O)c1nc2cccnn2c1-c1ccc(Cl)cc1` [Example 57, 3-(4-chlorophenyl)-N-[2-(2-hydroxyphenyl)ethyl]imidazo[1,2-b]pyridazine-2-carboxamide, formate salt], the IC50 was over 21800 nM.
As for `Cc1cc(NC(=O)c2nc3cccnn3c2-c2ccc(Cl)cc2)no1` [Example 58, 3-(4-chlorophenyl)-N-(5-methyl-1,2-oxazol-3-yl)imidazo[1,2-b]pyridazine-2-carboxamide, trifluoroacetate salt], the IC50 was 831 nM.
The same measure, in the same setting: the result for `Cn1ncc(NC(=O)c2nc3cccnn3c2-c2ccc(Cl)cc2)n1` [Example 59, 3-(4-chlorophenyl)-N-(2-methyl-2H-1,2,3-triazol-4-yl)imidazo[1,2-b]pyridazine-2-carboxamide, trifluoroacetate salt] reads 749 nM; that for `O=C(c1nc2cccnn2c1-c1ccc2nccnc2c1)N1CCC1` [Example 62, azetidin-1-yl[3-(quinoxalin-6-yl)imidazo[1,2-b]pyridazin-2-yl]methanone, formate salt], 11000 nM; that for `CC(=O)c1ccc(F)c(-c2c(C(=O)N3CCC3)nc3cccnn23)c1` [Example 63, 1-[3-[2-(azetidin-1-ylcarbonyl)imidazo[1,2-b]pyridazin-3-yl]-4-fluorophenyl]ethanone, formate salt], 394 nM.
Same read-out and setting: the result for `Cc1ccc(-c2c(C(=O)N3CCC3)nc3cccnn23)c(C)c1Cl` [Example 66, azetidin-1-yl[3-(3-chloro-2,4-dimethylphenyl)imidazo[1,2-b]pyridazin-2-yl]methanone, formate salt] reads 3390 nM; that for `O=C(c1nc2cccnn2c1-c1ccc2c(c1)OCCO2)N1CCC1` [Example 67, azetidin-1-yl[3-(2,3-dihydro-1,4-benzodioxin-6-yl)imidazo[1,2-b]pyridazin-2-yl]methanone, formate salt], 2260 nM.
